One assay addresses FGFR3 enzyme (Homo sapiens (Human), UniProt P22607). The assay can be described thus: FGFR Enzymatic Assay (peptide phosphorylation, FRET), FGFR3. In kind it is biochemical. Conditions: IC50 ratio showing FGFR3 selectivity; pre-incubated for 4 hours. As for the experimental part: (§1) The inhibitor potency of the exemplified compounds was measured in an enzyme assay that measures peptide phosphorylation using FRET measurements to detect product formation. Inhibitors were serially diluted in DMSO and a volume of 0.5 μL was transferred to the wells of a 384-well plate.
(§2) GraphPad prism3 was used to analyze the data.

For another assay, the target named is FGFR4 (Homo sapiens (Human), UniProt P22455). The assay can be described thus: FGFR Enzymatic Assay (peptide phosphorylation, FRET), FGFR4. In kind it is biochemical. How it is done:
as §1
The enzymes were purchased from Millipore or Invitrogen.
as §2

[1] abbreviates: IC50 ratio showing FGFR4 selectivity, pre-incubated for 4 hours.
[2] abbreviates: ratio of IC50 data showing FGFR4 selectivity, pre-incubated for 5 to 10 minutes.

The text below walks through data of US10251892B2, “Bicyclic heterocycles as FGFR4 inhibitors” (Incyte Corporation, priority 2015, dated 2019).

Chain of FGFR4 (P22455 22-802): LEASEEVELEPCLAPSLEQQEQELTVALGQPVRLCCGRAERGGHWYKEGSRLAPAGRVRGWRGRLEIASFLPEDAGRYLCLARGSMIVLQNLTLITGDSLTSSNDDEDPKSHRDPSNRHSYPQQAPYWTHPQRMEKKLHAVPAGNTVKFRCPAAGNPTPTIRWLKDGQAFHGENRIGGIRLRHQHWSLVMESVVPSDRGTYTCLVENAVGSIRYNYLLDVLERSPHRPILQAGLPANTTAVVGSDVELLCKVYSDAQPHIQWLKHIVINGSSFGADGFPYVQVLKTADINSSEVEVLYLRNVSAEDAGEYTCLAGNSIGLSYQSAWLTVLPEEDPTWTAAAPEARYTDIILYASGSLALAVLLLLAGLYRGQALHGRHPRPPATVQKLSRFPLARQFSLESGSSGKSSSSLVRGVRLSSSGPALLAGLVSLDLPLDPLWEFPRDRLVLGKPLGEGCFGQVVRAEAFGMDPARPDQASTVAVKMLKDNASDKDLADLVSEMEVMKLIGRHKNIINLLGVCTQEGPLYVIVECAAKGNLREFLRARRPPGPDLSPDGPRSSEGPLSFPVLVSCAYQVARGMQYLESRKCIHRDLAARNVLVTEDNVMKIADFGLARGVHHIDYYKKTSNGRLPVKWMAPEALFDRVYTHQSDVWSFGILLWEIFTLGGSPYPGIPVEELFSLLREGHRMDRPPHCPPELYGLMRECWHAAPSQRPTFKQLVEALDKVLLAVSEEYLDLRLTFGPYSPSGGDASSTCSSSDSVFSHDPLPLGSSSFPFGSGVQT
Chain of FGFR3 enzyme (P22607 23-806): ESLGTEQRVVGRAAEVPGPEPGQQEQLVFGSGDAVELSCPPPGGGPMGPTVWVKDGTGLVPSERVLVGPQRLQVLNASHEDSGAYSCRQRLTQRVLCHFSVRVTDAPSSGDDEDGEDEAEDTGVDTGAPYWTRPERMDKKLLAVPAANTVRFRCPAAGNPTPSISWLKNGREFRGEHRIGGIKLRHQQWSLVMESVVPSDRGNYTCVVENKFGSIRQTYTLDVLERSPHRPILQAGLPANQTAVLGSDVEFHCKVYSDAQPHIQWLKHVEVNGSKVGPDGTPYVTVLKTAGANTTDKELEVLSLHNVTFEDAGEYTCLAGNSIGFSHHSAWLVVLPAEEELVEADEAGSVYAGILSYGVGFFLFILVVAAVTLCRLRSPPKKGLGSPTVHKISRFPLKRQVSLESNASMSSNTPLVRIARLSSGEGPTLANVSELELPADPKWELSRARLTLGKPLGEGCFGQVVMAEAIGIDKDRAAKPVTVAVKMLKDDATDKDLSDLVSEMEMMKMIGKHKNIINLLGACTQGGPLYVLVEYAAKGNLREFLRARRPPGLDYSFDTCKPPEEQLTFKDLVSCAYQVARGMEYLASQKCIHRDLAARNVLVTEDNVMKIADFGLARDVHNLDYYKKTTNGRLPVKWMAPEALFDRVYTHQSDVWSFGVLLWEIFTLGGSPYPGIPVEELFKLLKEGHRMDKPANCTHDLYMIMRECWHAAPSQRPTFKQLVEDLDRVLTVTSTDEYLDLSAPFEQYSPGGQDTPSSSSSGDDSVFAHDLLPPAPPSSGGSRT

With `COc1cncc(-c2cc3c(cn2)CN(c2c(F)c(OC)cc(OC)c2F)C(=O)C32CC2)c1` [Example 10, 2′-(2,6-difluoro-3,5-dimethoxyphenyl)-6′-(5-methoxypyridin-3-yl)-1′H-spiro[cyclopropane-1,4′-[2,7]naphthyridin]-3′(2′H)-one], the FGFR1/FGFR3 on FGFR3 enzyme is reported as above 1. In addition, at FGFR4 (setting [1]), the FGFR1/FGFR4 was above 25, the FGFR2/FGFR4 is recorded as above 25 and the FGFR3/FGFR4 was above 10. Also, at FGFR4 (setting [2]), the FGFR1/FGFR4 is above 25, the FGFR2/FGFR4 is recorded as above 10 and the FGFR3/FGFR4 was above 10.

With `COc1cc(OC)c(F)c(N2Cc3cnc(-c4cncc(C#N)c4)cc3C3(CC3)C2=O)c1F` [Example 8, 5-(2′-(2,6-difluoro-3,5-dimethoxyphenyl)-3′-oxo-2′,3′-dihydro-1′H-spiro[cyclopropane-1,4′-[2,7]naphthyridine]-6′-yl)nicotinonitrile], the FGFR1/FGFR3 at FGFR3 enzyme is recorded as above 5. Moreover, at FGFR4 (setting [1]), the FGFR1/FGFR4 is on record as above 50, the FGFR2/FGFR4 is above 10 and the FGFR3/FGFR4 is on record as above 10. Further, on FGFR4 (setting [2]), the FGFR1/FGFR4 is listed as above 50, the FGFR2/FGFR4 is above 10 and the FGFR3/FGFR4 is reported as above 10.

Turning to `COc1cc(OC)c(F)c(N2Cc3cnc(-c4cncc(Cl)c4)cc3C3(CC3)C2=O)c1F` [Example 11, 6′-(5-chloropyridin-3-yl)-2′-(2,6-difluoro-3,5-dimethoxyphenyl)-1′H-spiro[cyclopropane-1,4′-[2,7]naphthyridin]-3′(2′H)-one], on FGFR3 enzyme, the FGFR1/FGFR3 is recorded as above 1. At FGFR4 (setting [1]), the FGFR1/FGFR4 is listed as above 25, the FGFR2/FGFR4 is on record as above 25 and the FGFR3/FGFR4 is above 10. In addition, at FGFR4 (setting [2]), the FGFR1/FGFR4 is listed as above 50, the FGFR2/FGFR4 is reported as above 20 and the FGFR3/FGFR4 is above 25.

Consider `COc1cc(OC)c(F)c(N2Cc3cnc(-c4cncc(N)c4)cc3C3(CC3)C2=O)c1F` [Example 4, 6′-(5-aminopyridin-3-yl)-2′-(2,6-difluoro-3,5-dimethoxyphenyl)-1′H-spiro[cyclopropane-1,4′-[2,7]naphthyridin]-3′(2′H)-one], for which the FGFR1/FGFR3 on FGFR3 enzyme is on record as above 1. On FGFR4 (setting [1]), the FGFR1/FGFR4 is given as above 25, the FGFR2/FGFR4 is listed as above 10 and the FGFR3/FGFR4 is on record as above 10. Also, at FGFR4 (setting [2]), the FGFR1/FGFR4 was above 10, the FGFR2/FGFR4 is reported as above 10 and the FGFR3/FGFR4 is given as above 5.

`COc1cc(OC)c(F)c(N2Cc3cnc(-c4cncc(N5CCOCC5)c4)cc3C3(CC3)C2=O)c1F` [Example 6, 2′-(2,6-difluoro-3,5-dimethoxyphenyl)-6′-(5-morpholinopyridin-3-yl)-1′H-spiro[cyclopropane-1,4′-[2,7]naphthyridin]-3′(2′H)-one]: at FGFR3 enzyme, the FGFR1/FGFR3 was above 3. Moreover, on FGFR4 (setting [1]), the FGFR1/FGFR4 is given as above 100, the FGFR2/FGFR4 is above 100 and the FGFR3/FGFR4 is reported as above 25. For the same compound, on FGFR4 (setting [2]), the FGFR1/FGFR4 is reported as above 100, the FGFR2/FGFR4 was above 100 and the FGFR3/FGFR4 is given as above 50.

Consider `COc1cc(OC)c(F)c(N2Cc3cnc(-c4cncc(F)c4)cc3C3(CC3)C2=O)c1F` [Example 5, 2′-(2,6-difluoro-3,5-dimethoxyphenyl)-6′-(5-fluoropyridin-3-yl)-1′H-spiro[cyclopropane-1,4′-[2,7]naphthyridin]-3′(2′H)-one], for which, on FGFR3 enzyme, the FGFR1/FGFR3 is recorded as above 3. For the same compound, on FGFR4 (setting [1]), the FGFR1/FGFR4 is recorded as above 10, the FGFR2/FGFR4 is on record as above 5 and the FGFR3/FGFR4 is on record as above 1. In addition, at FGFR4 (setting [2]), the FGFR1/FGFR4 is above 10, the FGFR2/FGFR4 is reported as above 5 and the FGFR3/FGFR4 is given as above 4.
